In patent US20200030355A1, “COMBINATION THERAPY FOR TREATING CANCER” (Epizyme, Inc., priority 2014, published 2020):
Entries after “also recorded” stand apart in the source; their conditions may differ. Read-outs that look alike come from different tables or passages of the source.

Experiments:
Assay type in all cases: cell-based, human
MOLM-13 (MLL-AF9) = assay: Combination proliferation study with Compound A2 (ATP/CellTiter-Glo, Chou-Talalay combination index)
Procedure, shortened: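 Viability by CellTiter-Glo ATP luminescence; Fa relative to DMSO controls. Combination index by Chou-Talalay (CI<1 synergy, =1 additive, >1 antagonism).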

MV4-11 (MLL-AF4) = assay: as above; details: for Combination of Compound A2 and anti-cancer agent, MV4-11: 7 Day Cotreatment; for Combination with Compound A2, MV4-111 MLL-AF4: Table 2, Example 3; for Combination with Compound A2, MV4-11 (MLL-AF4): 7 Day Cotreatment Model, Table 4
[1] = tested on: SKM-1 (non-MLL-rearranged AML); assay: as above
Description: (§1) Graphs representing values of combination index (CI) versus Fractional effect (Fa) known as Fa-CI plots were generated and synergy was evaluated.
as §1
(§2) The HP-D300 digital dispenser (Tecan) was used to dispense compounds in a combinatorial matrix. […] Cell viability was measured via ATP content using CellTiter-Glo® (Promega).
(§3) Viability was determined using CellTiter-Glo® (Promega).
MV4-11 cells were maintained in IMDM supplemented with 10% fetal bovine serum. MOLM-13 and SKM-1 cells were maintained in Roswell Park Memorial Institute medium (RPMI) supplemented with 10% fetal bovine serum. They were cultured in flasks or plates in a humidified 5% CO2 atmosphere.
Proliferation studies were performed using MOLM-13, MV4-11 and SKM-1 cell lines in vitro to evaluate the cancer cell killing effect of a combination of two agents together on cell growth. Initial proliferation studies were performed to determine the IC50 values of a given compound in each cell line. The cell counts were measured by ATP quantitation using the Promega Cell Titer Glo kit and luminescence values correspond to the amount of ATP in a given well.
Compounds evaluated for synergy in the co-treatment phase were tested in a range which was bracketed around the IC50's. The compounds were plated to a 96 well plate in a matrix format which includes increasing concentrations of each drug in the combination in a constant ratio, in addition to the effect of each compound alone in the study. Cells were seeded and grown in the log-linear phase for 3 or 7 days in the cotreatment phase. Maximum and minimum inhibition (DMSO alone) controls were used in each plate to calculate fraction affected (Fa) of a test well. DMSO concentration was kept at 0.1% v/v. The drug combination analysis was performed utilizing the Chou-Talalay method. Synergy was determined using the software package Calcusyn by Biosoft. The combination index (CI) is the term used to describe the level of synergy or antagonism in a given test system. A combination index less than one indicates synergy, and a CI greater than one indicates antagonism.
The drug combination analysis was performed using the Chou-Talalay method. Graphs representing values of combination index (CI) versus Fractional effect (Fa) known as Fa-CI plots were generated and synergy was evaluated.

EOL-1 (MLL-PTD) = assay: Combination proliferation study with Compound A2
Description: as §2, §3

KOPM-88 (MLL-PTD) = assay: Combination proliferation study with Compound A2
Description: as §2, §3

MOLM-13 cells [2] = assay: Apoptosis by Annexin V flow cytometry (Guava Nexin)
Description: (§4) A Guava EasyCyte HT™ flow cytometer was used to measure DNA content, Annexin V staining and cell surface expression of CD14 and CD11b markers on Days 10 and 14.
(§5) On Day 0 MOLM-13 cells are seeded at 3,000 cells/mL. On Day 7 and Day 10 MOLM-13 cells are counted and reseeded at 50,000 cells/mL. […] On Day 10 They were redosed again. On Day 14 the experiment was terminated. Cells were sampled for CD14 and CD11b analysis on Days 7, 10 and 14.
(§6) To evaluate the fraction of cells in each cell cycle, flow cytometric analysis was performed. FACS analysis for detection of cell death by apoptosis, and cell cycle was performed.
(§7) Cells were harvested on days 7, 10 and 14 and split to allow simultaneous analysis of cell cycle and Annexin V staining. Apoptosis was determined using the Guava Nexin Assay (Millipore 4500-0450) and cells were prepared according to the manufacturer's recommendations. Samples were analyzed using the Guava EasyCyte Plus System (Millipore). Cells for cell cycle analysis were pelleted by centrifugation at 200×g for 5 minutes at 4° C., washed twice with ice cold PBS then fixed with 70% ice cold ethanol. All samples were analyzed together at end of experiment. Following fixation cells were washed with PBS and stained with the Guava cell cycle reagent (Millipore 4500-0220) for 30 minutes. Samples were analyzed using the Guava EasyCyte Plus System (Millipore).

MOLM-13 cells [3] = assay: Cell cycle / sub-G1 flow cytometry; details: 156 nM Compound A2 plus 63 nM Ara-C, 10 and 14 days
Description: as §4, §5, §6, §7

MOLM-13 cells [4] = assay: CD11b and CD14 differentiation marker expression by flow cytometry; details: single agents
Description: as §4, §5
On day 7, 10, and 14, cells were collected for analysis. The cells were prepared by washing twice in PBS, followed by fixation in 4% formaldehyde for ten minutes at 37° C. After fixation cells were washed and blocked with blocking buffer for 10 minutes at room temperature. Cells were then incubated in presence of anti-CD14, anti-CD11b or anti-IgG antibody for 1 hour at room temperature while rotating. Cells were washed, re-suspended in PBS and 5,000 events were analyzed using ExpressPro software on the GuavaCyte Plus System.

[5] = 7 Day Cotreatment Model, Table 4
[6] = Table 2, Example 3, listed as cytarabine

## Nc1ccn([C@@H]2O[C@H](CO)[C@@H](O)[C@@H]2O)c(=O)n1 [Ara-C, cytarabine]
MOLM-13 (MLL-AF9); 4 + 3 Model: Compound A2 pretreatment 4 days, then co-treatment 3 days
  Combination of Compound A2 and anti-cancer agent, MOLM-13: Synergy (A combination index less than one indicates synergy)
MOLM-13 (MLL-AF9); 7 Day Cotreatment
  Combination of Compound A2 and anti-cancer agent, MOLM-13: Synergy (A combination index less than one indicates synergy)
MOLM-13 (MLL-AF9); [5]
  Combination with Compound A2, MOLM-13 (MLL-AF9): Strong Synergy
MOLM-13 (MLL-AF9); MOLM-13, Ara-C 3 days, then cotreatment with Compound A2 7 days
  Combination with Compound A2, reverse order of addition: Synergy
MOLM-13 (MLL-AF9); MOLM-13, Ara-C 3 days, washed out, then Compound A2 7 days
  Combination with Compound A2, reverse order of addition with Ara-C washout: Combination benefit is maintained
MOLM-13 (MLL-AF9); MOLM-13, pre-treatment model with Compound A2 washout
  Combination with Compound A2 when Compound A2 is washed out prior to the addition of the second agent: durable combination benefit; also recorded: synergistic anti-proliferative activity was maintained
MOLM-13 (MLL-AF9); Table 2, Example 3
  Combination with Compound A2, MOLM-13 (MLL-AF9): Synergy (Drug synergy was statistically defined by CI values less than 1)
MOLM-13 (MLL-AF9); [6]
  Combination with Compound A2, MOLM-13 (MLL-AF9): synergistically
MV4-11 (MLL-AF4)
  Combination of Compound A2 and anti-cancer agent, MV4-11: Synergy (A combination index less than one indicates synergy)
  Combination with Compound A2, MV4-111 MLL-AF4: Strong Synergy
MV4-11 (MLL-AF4); MV4-11, pre-treatment model with Compound A2 washout
  Combination with Compound A2 when Compound A2 is washed out prior to the addition of the second agent: synergistic anti-proliferative activity was maintained
MV4-11 (MLL-AF4); listed as cytarabine
  Combination with Compound A2, MV4-111 MLL-AF4: synergistically
[1]; SKM-1, non-MLL-rearranged, Example 5
  Effect of Compound A2 on the antiproliferative activity of the second agent: did not affect
[1]; [6]
  Combination with Compound A2, SKM-1 AML: Non-rearranged: did not act synergistically
EOL-1 (MLL-PTD); Table 3, Example 3
  Combination with Compound A2, EOL-1 (MLL-PTD): Synergy (Drug synergy was statistically defined by CI values less than 1)
KOPM-88 (MLL-PTD); Table 3, Example 3
  Combination with Compound A2, KOPM-88 (MLL-PTD): Synergy (Drug synergy was statistically defined by CI values less than 1)
MOLM-13 cells [2]; 156 nM Compound A2 plus 63 nM Ara-C
  Apoptosis, combination with Compound A2: enhance apoptosis
MOLM-13 cells [2]; 14 day treatment, 156 nM Compound A2 or 63 nM Ara-C
  Induction of apoptosis, single agent: modest increase in apoptotic cell population
MOLM-13 cells [3]
  sub-G1 cell population, combination with Compound A2: significant increase in the population of sub-G1 cells

## Nc1ncn([C@@H]2O[C@H](CO)[C@@H](O)[C@H]2O)c(=O)n1 [Azacitidine]
MOLM-13 (MLL-AF9); [5]
  Combination with Compound A2, MOLM-13 (MLL-AF9): Strong Synergy
MOLM-13 (MLL-AF9); 7 Day Cotreatment Model, Table 4, listed as azacytidine
  Combination with Compound A2, MOLM-13 (MLL-AF9): synergistically induce an anti-proliferative effect; also recorded: synergistic anti-proliferative activity
MOLM-13 (MLL-AF9); Table 2, Example 3
  Combination with Compound A2, MOLM-13 (MLL-AF9): Synergy (Drug synergy was statistically defined by CI values less than 1)
MV4-11 (MLL-AF4)
  Combination of Compound A2 and anti-cancer agent, MV4-11: Synergy (A combination index less than one indicates synergy)
  Combination with Compound A2, MV4-11 (MLL-AF4): Synergy (Drug synergy was statistically defined by CI values less than 1)
  Combination with Compound A2, MV4-111 MLL-AF4: Synergy (Drug synergy was statistically defined by CI values less than 1)
MV4-11 (MLL-AF4); listed as azacytidine
  Combination with Compound A2, MV4-11 (MLL-AF4): synergistically induce an anti-proliferative effect; also recorded: synergistic anti-proliferative activity
[1]; SKM-1, non-MLL-rearranged, Example 5, listed as Azacytidine
  Effect of Compound A2 on the antiproliferative activity of the second agent: not potentiated
[1]; SKM-1, non-MLL-rearranged, Example 5, listed as azacytidine
  Effect of Compound A2 on the antiproliferative activity of the second agent: no impact
EOL-1 (MLL-PTD); Table 3, Example 3
  Combination with Compound A2, EOL-1 (MLL-PTD): Synergy (Drug synergy was statistically defined by CI values less than 1)
KOPM-88 (MLL-PTD); Table 3, Example 3
  Combination with Compound A2, KOPM-88 (MLL-PTD): Synergy (Drug synergy was statistically defined by CI values less than 1)

## COc1cccc2c1C(=O)c1c(O)c3c(c(O)c1C2=O)C[C@@](O)(C(C)=O)C[C@@H]3O[C@H]1C[C@H](N)[C@H](O)[C@H](C)O1 [Daunorubicin]
MOLM-13 (MLL-AF9)
  Combination with Compound A2, MOLM-13 (MLL-AF9): Synergy (key: Synergy: Drug synergy was statistically defined by CI values less than 1; Antagonistic: antagonism by CI>1; Additive: additive effect by CI equal to 1)
  Combination with Compound A2 when Compound A2 is washed out prior to the addition of the second agent: synergistic anti-proliferative activity was maintained
MV4-11 (MLL-AF4)
  Combination with Compound A2 when Compound A2 is washed out prior to the addition of the second agent: synergistic anti-proliferative activity was maintained
[1]
  Combination with Compound A2, SKM-1 AML: Non-rearranged: did not act synergistically
  Effect of Compound A2 on the antiproliferative activity of the second agent: did not affect
EOL-1 (MLL-PTD)
  Combination with Compound A2, EOL-1 (MLL-PTD): Synergy (key: Synergy: Drug synergy was statistically defined by CI values less than 1; Antagonistic: antagonism by CI>1; Additive: additive effect by CI equal to 1)
KOPM-88 (MLL-PTD)
  Combination with Compound A2, KOPM-88 (MLL-PTD): Synergy (key: Synergy: Drug synergy was statistically defined by CI values less than 1; Antagonistic: antagonism by CI>1; Additive: additive effect by CI equal to 1)
MOLM-13 cells [4]
  Differentiation markers CD11b and CD14: The same effect was observed
